Assay results: ChEMBL document CHEMBL4002623, “Synthesis and in vitro activity of dicationic indolyl diphenyl ethers as novel potent antibiotic agents against drug-resistant bacteria” (Bioorg Med Chem Lett, 2017)

How the values were obtained:
Staphylococcus aureus [1] = assay: Antibacterial activity against methicillin-sensitive Staphylococcus aureus ATCC 29213 by agar dilution method; assay type: functional
Staphylococcus aureus [2] = assay: Antibacterial activity against methicillin-resistant Staphylococcus aureus 09-13 by agar dilution method; assay type: functional
[3] = tested on: Staphylococcus epidermidis; assay: Antibacterial activity against methicillin-sensitive Staphylococcus epidermidis ATCC 12228 by agar dilution method; assay type: functional
[4] = tested on: Staphylococcus epidermidis; assay: Antibacterial activity against methicillin-resistant Staphylococcus epidermidis 09-3 by agar dilution method; assay type: functional
Enterococcus faecalis [5] = assay: Antibacterial activity against vancomycin-sensitive Enterococcus faecalis ATCC 29212 by agar dilution method; assay type: functional
Enterococcus faecalis [6] = assay: Antibacterial activity against vancomycin-resistant Enterococcus faecalis 09-9 by agar dilution method; assay type: functional
Enterococcus faecium [7] = assay: Antibacterial activity against vancomycin-resistant Enterococcus faecium ATCC 700221 by agar dilution method; assay type: functional
Escherichia coli [8] = assay: Antibacterial activity against extended-spectrum beta-lactamase-negative Escherichia coli ATCC 25922 by agar dilution method; assay type: functional
Escherichia coli [9] = assay: Antibacterial activity against extended-spectrum beta-lactamase-positive Escherichia coli 09-1 by agar dilution method; assay type: functional
Klebsiella pneumoniae [10] = assay: Antibacterial activity against extended-spectrum beta-lactamase-negative Klebsiella pneumoniae 7 by agar dilution method; assay type: functional
Klebsiella pneumoniae [11] = assay: Antibacterial activity against extended-spectrum beta-lactamase-positive Klebsiella pneumoniae 09-25 by agar dilution method; assay type: functional
Klebsiella pneumoniae [12] = assay: Antibacterial activity against Klebsiella pneumoniae ATCC BAA-2146 expressing NDM-1 by agar dilution method; assay type: functional
[13] = Cytotoxicity against HEK293T cells after 48 hrs by MTS assay; assay type: cell-based, HEK-293T; conditions: human
Enterococcus faecium [14] = assay: Antibacterial activity against vancomycin-sensitive Enterococcus faecium 09-10 by agar dilution method; assay type: functional
Staphylococcus aureus [15] = assay: Antibacterial activity against methicillin-resistant Staphylococcus aureus ATCC 33591 by agar dilution method; assay type: functional
Staphylococcus aureus [16] = assay: Antibacterial activity against methicillin-sensitive Staphylococcus aureus 15 by agar dilution method; assay type: functional
Staphylococcus aureus [17] = assay: Antibacterial activity against methicillin-sensitive Staphylococcus aureus 09-6 by agar dilution method; assay type: functional
[18] = tested on: Staphylococcus epidermidis; assay: Antibacterial activity against methicillin-sensitive Staphylococcus epidermidis 09-9 by agar dilution method; assay type: functional
Enterococcus faecalis [19] = assay: Antibacterial activity against vancomycin-resistant Enterococcus faecalis ATCC 51299 by agar dilution method; assay type: functional
Enterococcus faecalis [20] = assay: Antibacterial activity against vancomycin-sensitive Enterococcus faecalis 09-8 by agar dilution method; assay type: functional
Enterococcus faecium [21] = assay: Antibacterial activity against vancomycin-resistant Enterococcus faecium 05-8 by agar dilution method; assay type: functional
Escherichia coli [22] = assay: Antibacterial activity against extended-spectrum beta-lactamase-negative Escherichia coli 1515 by agar dilution method; assay type: functional
Escherichia coli [23] = assay: Antibacterial activity against extended-spectrum beta-lactamase-negative Escherichia coli 09-20 by agar dilution method; assay type: functional
Klebsiella pneumoniae [24] = assay: Antibacterial activity against extended-spectrum beta-lactamase-positive Klebsiella pneumoniae ATCC 700603 by agar dilution method; assay type: functional
Klebsiella pneumoniae [25] = assay: Antibacterial activity against extended-spectrum beta-lactamase-negative Klebsiella pneumoniae 09-8 by agar dilution method; assay type: functional
Pseudomonas aeruginosa [26] = assay: Antibacterial activity against Pseudomonas aeruginosa ATCC 27853 by agar dilution method; assay type: functional
Pseudomonas aeruginosa [27] = assay: Antibacterial activity against Pseudomonas aeruginosa PAO1 by agar dilution method; assay type: functional
Pseudomonas aeruginosa [28] = assay: Antibacterial activity against Pseudomonas aeruginosa 09-14 by agar dilution method; assay type: functional
[29] = tested on: Acinetobacter calcoaceticus; assay: Antibacterial activity against Acinetobacter calcoaceticus ATCC 19606 by agar dilution method; assay type: functional
Enterobacter cloacae = assay: Antibacterial activity against Enterobacter cloacae 45301 by agar dilution method; assay type: functional
Klebsiella aerogenes = assay: Antibacterial activity against Enterobacter aerogenes 45102 by agar dilution method; assay type: functional
Serratia marcescens = assay: Antibacterial activity against Serratia marcescens 41002 by agar dilution method; assay type: functional
Morganella morganii = assay: Antibacterial activity against Morganella morganii ATCC 25830 by agar dilution method; assay type: functional
Providencia rettgeri = assay: Antibacterial activity against Providencia rettgeri ATCC 31052 by agar dilution method; assay type: functional
Proteus vulgaris = assay: Antibacterial activity against Proteus vulgaris ATCC 29905 by agar dilution method; assay type: functional
Proteus mirabilis = assay: Antibacterial activity against Proteus mirabilis 09-1 by agar dilution method; assay type: functional
Salmonella typhi = assay: Antibacterial activity against Salmonella typhi H901 by agar dilution method; assay type: functional, Salmonella enterica subsp. enterica serovar Typhi; conditions: Salmonella enterica
Citrobacter freundii = assay: Antibacterial activity against Citrobacter freundii ATCC 43864 by agar dilution method; assay type: functional

CCCNC(=N)c1ccc2cc(-c3ccc(Oc4ccc(-c5cc6ccc(C(=N)NCCC)cc6[nH]5)cc4)cc3)[nH]c2c1
2 µg/mL: MIC [4]
26.2 µg/mL: CC50 at 48 h [13]
128 µg/mL: MIC (Escherichia coli [23]) | MIC (Klebsiella pneumoniae [25]) | MIC (Morganella morganii) | MIC (Salmonella typhi)
16 µg/mL: MIC (Staphylococcus aureus [1]) | MIC (Staphylococcus aureus [2]) | MIC (Enterococcus faecalis [5]) | MIC (Enterococcus faecalis [6]) | MIC (Enterococcus faecium [14]) | MIC (Staphylococcus aureus [15]) | MIC (Staphylococcus aureus [17]) | MIC (Enterococcus faecalis [19]) | MIC (Enterococcus faecalis [20]) | MIC (Enterococcus faecium [21])
8 µg/mL: MIC [3] | MIC (Staphylococcus aureus [16]) | MIC [18]
2 to 16 µg/mL: MIC (Enterococcus faecium [7])
> 128 µg/mL: MIC (Escherichia coli [8]) | MIC (Escherichia coli [9]) | MIC (Klebsiella pneumoniae [10]) | MIC (Klebsiella pneumoniae [11]) | MIC (Klebsiella pneumoniae [12]) | MIC (Escherichia coli [22]) | MIC (Klebsiella pneumoniae [24]) | MIC (Pseudomonas aeruginosa [26]) | MIC (Pseudomonas aeruginosa [27]) | MIC (Pseudomonas aeruginosa [28]) | MIC [29] | MIC (Enterobacter cloacae) | MIC (Klebsiella aerogenes) | MIC (Serratia marcescens) | MIC (Providencia rettgeri) | MIC (Proteus vulgaris) | MIC (Proteus mirabilis) | MIC (Citrobacter freundii)

CCC(C)NC(=N)c1ccc2cc(-c3ccc(Oc4ccc(-c5cc6ccc(C(=N)NC(C)CC)cc6[nH]5)cc4)cc3)[nH]c2c1 (centres undefined)
32 µg/mL: MIC (Escherichia coli [9]) | MIC (Klebsiella pneumoniae [11]) | MIC (Klebsiella pneumoniae [12]) | MIC (Escherichia coli [23]) | MIC (Pseudomonas aeruginosa [26]) | MIC (Enterobacter cloacae) | MIC (Klebsiella aerogenes) | MIC (Proteus vulgaris) | MIC (Citrobacter freundii)
64 µg/mL: MIC (Klebsiella pneumoniae [10]) | MIC (Klebsiella pneumoniae [24]) | MIC (Pseudomonas aeruginosa [27]) | MIC (Pseudomonas aeruginosa [28]) | MIC [29] | MIC (Serratia marcescens) | MIC (Providencia rettgeri) | MIC (Proteus mirabilis)
1 µg/mL: MIC (Staphylococcus aureus [2]) | MIC [4] | MIC (Enterococcus faecium [7])
40.4 µg/mL: CC50 at 48 h [13]
0.5 µg/mL: MIC [3]
8 µg/mL: MIC (Enterococcus faecalis [6]) | MIC (Enterococcus faecium [14])
2 µg/mL: MIC (Staphylococcus aureus [1]) | MIC (Enterococcus faecalis [5]) | MIC (Staphylococcus aureus [15]) | MIC (Staphylococcus aureus [16]) | MIC (Staphylococcus aureus [17]) | MIC [18] | MIC (Enterococcus faecalis [19]) | MIC (Enterococcus faecalis [20]) | MIC (Enterococcus faecium [21])
16 µg/mL: MIC (Escherichia coli [8]) | MIC (Escherichia coli [22]) | MIC (Klebsiella pneumoniae [25]) | MIC (Morganella morganii) | MIC (Salmonella typhi)

N=C(NC1CCCCC1)c1ccc2cc(-c3ccc(Oc4ccc(-c5cc6ccc(C(=N)NC7CCCCC7)cc6[nH]5)cc4)cc3)[nH]c2c1
1 µg/mL: MIC [3]
4 µg/mL: MIC (Staphylococcus aureus [1]) | MIC (Enterococcus faecalis [5]) | MIC (Staphylococcus aureus [17]) | MIC (Enterococcus faecalis [19]) | MIC (Enterococcus faecalis [20]) | MIC (Enterococcus faecium [21])
8 µg/mL: MIC (Enterococcus faecalis [6]) | MIC (Enterococcus faecium [14])
> 128 µg/mL: MIC (Klebsiella pneumoniae [24]) | MIC (Pseudomonas aeruginosa [26]) | MIC (Pseudomonas aeruginosa [27]) | MIC (Pseudomonas aeruginosa [28]) | MIC (Providencia rettgeri) | MIC (Proteus mirabilis)
59.2 µg/mL: CC50 at 48 h [13]
64 µg/mL: MIC (Escherichia coli [8]) | MIC [29] | MIC (Morganella morganii) | MIC (Salmonella typhi)
2 µg/mL: MIC (Staphylococcus aureus [2]) | MIC [4] | MIC (Enterococcus faecium [7]) | MIC (Staphylococcus aureus [15]) | MIC (Staphylococcus aureus [16]) | MIC [18]
128 µg/mL: MIC (Escherichia coli [9]) | MIC (Klebsiella pneumoniae [10]) | MIC (Klebsiella pneumoniae [11]) | MIC (Klebsiella pneumoniae [12]) | MIC (Escherichia coli [22]) | MIC (Escherichia coli [23]) | MIC (Klebsiella pneumoniae [25]) | MIC (Enterobacter cloacae) | MIC (Klebsiella aerogenes) | MIC (Serratia marcescens) | MIC (Proteus vulgaris) | MIC (Citrobacter freundii)
